# Experimental data reported in patent publication EP4417602A1, “SUBSTITUTED PYRAZOLE CARBOXAMIDES, SALTS THEREOF AND THEIR USE AS HERBICIDALLY ACTIVE SUBSTANCES” (Bayer AG, priority 2023, dated 2024).
# Key:
# SETVI [1] = assay: A. Herbicidal pre-emergence action on harmful plants (Tables A); assay type: in vivo, Setaria viridis; conditions: visual grading after ca. 3 weeks vs untreated controls, 100% = plants have died off, 0% = as control plants
# In short: (§1)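 Greenhouse pre-emergence test: compound applied to the soil surface at 1280 g/ha or below, and herbicidal effect rated visually at ca. 3 weeks on a 0–100% scale against untreated plants.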
# KCHSC = assay: B. Herbicidal post-emergence action on harmful plants (Tables B); assay type: in vivo, Kochia scoparia
# Description: (§2) Seeds of mono- and dicotyledonous weed plants were placed in plastic pots in sandy loam soil (doubly sown with in each case one species of mono- or dicotyledonous weed plants per pot), covered with soil and cultivated in a greenhouse under controlled growth conditions. 2 to 3 weeks after sowing, the test plants were treated at the one-leaf stage. The compounds of the invention, formulated in the form of wettable powders (WP) or as emulsion concentrates (EC), were applied onto the green parts of the plants as aqueous suspension or emulsion with addition of 0.5% additive at a water application rate of 600 liters per hectare (converted). After the test plants had been kept in the greenhouse under optimum growth conditions for about 3 weeks, the activity of the preparations was rated visually in comparison to untreated controls. For example, 100% activity = the plants have died, 0% activity = like control plants. Tables B1 to B12, below, show the effects of selected compounds of the general formula (I) according to table 1 on various harmful plants and an application rate corresponding to 1280 g/ha or below obtained by the experimental procedure mentioned above. Table B1a: post-emergence activity at 1280g/ha against ABUTH in %
# DIGSA [2] = assay: A. Herbicidal pre-emergence action on harmful plants (Tables A); assay type: in vivo, Digitaria sanguinalis
# In short: as §1
# AMARE [3] = assay: B. Herbicidal post-emergence action on harmful plants (Tables B); assay type: in vivo, Amaranthus retroflexus; conditions: application rate 1280 g/ha; Table B8
# Description: as §2
# DIGSA [4] = assay: as above; assay type: in vivo, Digitaria sanguinalis; conditions: application rate 1280 g/ha; Table B12a
# In short: (§3)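 Activity was scored visually as % damage (100% = dead, 0% = like untreated) about 3 weeks after treatment. Plants at the one-leaf stage, 2-3 weeks old, were sprayed with WP/EC formulations plus 0.5% additive (600 L/ha water, up to 1280 g/ha). Plants were grown in sandy loam in a greenhouse.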
# MATIN [5] = assay: as above; assay type: in vivo, Matricaria inodora; conditions: application rate 1280 g/ha; Table B4a
# In short: as §3
# AMARE [6] = assay: A. Herbicidal pre-emergence action on harmful plants (Tables A); assay type: in vivo, Amaranthus retroflexus
# In short: as §1
# POAAN [7] = assay: as above; assay type: in vivo, Poa annua
# In short: as §1
# ECHCG [8] = assay: as above; assay type: in vivo, Echinochloa crus-galli; conditions: visual grading after ca. 3 weeks vs untreated controls, 100% = plants have died off, 0% = as control plants
# In short: as §1
# VERPE [9] = assay: as above; assay type: in vivo, Veronica persica; conditions: application rate 1280 g/ha; Table A11
# From the text: Seeds of mono- and dicotyledonous weed plants were sown in plastic pots (double sowings with one species of mono- and one species of dicotyledonous weed plants per pot), in sandy loam, and covered with soil. The compounds according to the invention, formulated in the form of wettable powders (WP) or as emulsifiable concentrates (EC), were applied to the surface of the covering soil as aqueous suspension or emulsion, with the addition of 0.5% of an additive, at an application rate of 6001 of water per hectare (converted). Following treatment, the pots were placed in a greenhouse and kept under optimum growth conditions for the test plants. The visual grading of the damage to the test plants was carried out after ca. 3 weeks in comparison to untreated controls (herbicidal effect in percent (%): 100% effect = plants have died off, 0% effect = as control plants). Tables A1 to A12, below, show the effects of selected compounds of the general formula (I) according to table 1 on various harmful plants and an application rate corresponding to 1280 g/ha or below obtained by the experimental procedure mentioned above. Table A1: pre-emergence activity at 1280g/ha against ABUTH in %
# POAAN [10] = assay: B. Herbicidal post-emergence action on harmful plants (Tables B); assay type: in vivo, Poa annua
# In short: as §3
# STEME [11] = assay: A. Herbicidal pre-emergence action on harmful plants (Tables A); assay type: in vivo, Stellaria media; conditions: visual grading after ca. 3 weeks vs untreated controls, 100% = plants have died off, 0% = as control plants
# In short: as §1
# ALOMY = assay: as above; assay type: in vivo, Alopecurus myosuroides
# In short: as §1
# LOLRI [12] = assay: as above; assay type: in vivo, Lolium rigidum; conditions: visual grading after ca. 3 weeks vs untreated controls, 100% = plants have died off, 0% = as control plants
# In short: as §1
# MATIN [13] = assay: as above; assay type: in vivo, Matricaria inodora; conditions: visual grading after ca. 3 weeks vs untreated controls, 100% = plants have died off, 0% = as control plants
# In short: as §1
# ABUTH = assay: B. Herbicidal post-emergence action on harmful plants (Tables B); assay type: in vivo, Abutilon theophrasti; conditions: application rate 1280 g/ha; Table B1a
# In short: as §3
# STEME [14] = assay: as above; assay type: in vivo, Stellaria media; conditions: application rate 1280 g/ha; Table B6
# In short: as §3
# ECHCG [15] = assay: as above; assay type: in vivo, Echinochloa crus-galli
# In short: as §3
# SETVI [16] = assay: as above; assay type: in vivo, Setaria viridis; conditions: application rate 1280 g/ha; Table B5
# In short: as §3
# LOLRI [17] = assay: as above; assay type: in vivo, Lolium rigidum; conditions: application rate 1280 g/ha; Table B3
# Description: as §2
# VERPE [18] = assay: as above; assay type: in vivo, Veronica persica
# In short: as §3
# [19] = application rate 1280 g/ha, Table B10a
# [20] = application rate 1280 g/ha, Table A12a
# [21] = application rate 1280 g/ha, visual grading after ca. 3 weeks vs untreated controls, 100% = plants have died off, 0% = as control plants
# [22] = application rate 1280 g/ha, Table B7a
# [23] = application rate 1280 g/ha, Table A9a
# [24] = application rate 320 g/ha, Table A12b
# [25] = application rate 80 g/ha, Table A7c
# [26] = application rate 320 g/ha, Table A7b
smiles,measurement,setting,value
CC(C)COCc1nn(C)cc1C(=O)N1CCCC1Cc1cc(F)ccc1F (racemic) [Example I-009],pre-emergence activity against SETVI,SETVI [1]; application rate 1280 g/ha,100%
same,post-emergence activity against KCHSC,"KCHSC; application rate 320 g/ha, Table B10b",100%
same,post-emergence activity against KCHSC,KCHSC; [19],100%
same,pre-emergence activity against DIGSA,DIGSA [2]; [20],90%
same,post-emergence activity against AMARE,AMARE [3],90%
same,post-emergence activity against DIGSA,DIGSA [4],100%
same,post-emergence activity against MATIN,MATIN [5],90%
same,pre-emergence activity against AMARE,AMARE [6]; [21],100%
same,pre-emergence activity against POAAN,POAAN [7]; [21],100%
same,pre-emergence activity against ECHCG,ECHCG [8]; application rate 1280 g/ha,100%
Cn1ncc(C(=O)N2CCCC2Cc2ccccc2F)c1COCC(F)(F)F (racemic) [Example I-163],pre-emergence activity against VERPE,VERPE [9],100%
same,post-emergence activity against KCHSC,KCHSC; [19],90%
same,pre-emergence activity against DIGSA,DIGSA [2]; [20],90%
same,post-emergence activity against POAAN,POAAN [10]; [22],100%
same,pre-emergence activity against STEME,STEME [11]; application rate 1280 g/ha,90%
same,pre-emergence activity against ALOMY,ALOMY; [23],100%
same,pre-emergence activity against POAAN,POAAN [7]; [21],100%
same,pre-emergence activity against ECHCG,ECHCG [8]; application rate 1280 g/ha,90%
COCc1c(C(=O)N2CCCC2Cc2ccccc2F)cnn1C (racemic) [Example I-171],pre-emergence activity against SETVI,SETVI [1]; application rate 320 g/ha,90%
same,pre-emergence activity against SETVI,SETVI [1]; application rate 1280 g/ha,100%
same,post-emergence activity against KCHSC,KCHSC; [19],90%
same,pre-emergence activity against DIGSA,DIGSA [2]; [24],90%
same,pre-emergence activity against DIGSA,DIGSA [2]; [20],100%
same,pre-emergence activity against LOLRI,LOLRI [12]; application rate 320 g/ha,90%
same,pre-emergence activity against LOLRI,LOLRI [12]; application rate 1280 g/ha,100%
same,pre-emergence activity against MATIN,MATIN [13]; application rate 1280 g/ha,100%
same,pre-emergence activity against STEME,STEME [11]; application rate 1280 g/ha,90%
same,pre-emergence activity against POAAN,POAAN [7]; [25],90%
same,pre-emergence activity against POAAN,POAAN [7]; [26],100%
same,pre-emergence activity against POAAN,POAAN [7]; [21],100%
same,pre-emergence activity against ECHCG,ECHCG [8]; application rate 320 g/ha,90%
same,pre-emergence activity against ECHCG,ECHCG [8]; application rate 1280 g/ha,100%
"COCc1nn(C)cc1C(=O)N1CCCC1Cc1ccc(F)cc1F (single isomer, unassigned) [Example I-079]",post-emergence activity against ABUTH,ABUTH,90%
same,pre-emergence activity against SETVI,SETVI [1]; application rate 80 g/ha,90%
same,pre-emergence activity against SETVI,SETVI [1]; application rate 320 g/ha,90%
same,pre-emergence activity against SETVI,SETVI [1]; application rate 1280 g/ha,90%
same,pre-emergence activity against VERPE,VERPE [9],90%
same,post-emergence activity against STEME,STEME [14],90%
same,pre-emergence activity against DIGSA,"DIGSA [2]; application rate 80 g/ha, Table A12c",90%
same,pre-emergence activity against DIGSA,DIGSA [2]; [24],90%
same,pre-emergence activity against DIGSA,DIGSA [2]; [20],90%
same,pre-emergence activity against LOLRI,LOLRI [12]; application rate 80 g/ha,90%
same,pre-emergence activity against LOLRI,LOLRI [12]; application rate 320 g/ha,100%
same,pre-emergence activity against LOLRI,LOLRI [12]; application rate 1280 g/ha,100%
same,post-emergence activity against AMARE,AMARE [3],90%
same,post-emergence activity against ECHCG,"ECHCG [15]; application rate 320 g/ha, Table B2b",90%
same,post-emergence activity against ECHCG,"ECHCG [15]; application rate 1280 g/ha, Table B2a",90%
same,post-emergence activity against POAAN,"POAAN [10]; application rate 80 g/ha, Table B7c",90%
same,post-emergence activity against POAAN,"POAAN [10]; application rate 320 g/ha, Table B7b",90%
same,post-emergence activity against POAAN,POAAN [10]; [22],90%
same,post-emergence activity against DIGSA,DIGSA [4],90%
same,post-emergence activity against MATIN,MATIN [5],90%
same,post-emergence activity against SETVI,SETVI [16],90%
same,pre-emergence activity against MATIN,MATIN [13]; application rate 80 g/ha,90%
same,pre-emergence activity against MATIN,MATIN [13]; application rate 320 g/ha,90%
same,pre-emergence activity against MATIN,MATIN [13]; application rate 1280 g/ha,90%
same,post-emergence activity against LOLRI,LOLRI [17],90%
same,pre-emergence activity against AMARE,"AMARE [6]; application rate 320 g/ha, Table A8b",90%
same,pre-emergence activity against AMARE,AMARE [6]; [21],90%
same,pre-emergence activity against STEME,STEME [11]; application rate 80 g/ha,90%
same,pre-emergence activity against STEME,STEME [11]; application rate 320 g/ha,90%
same,pre-emergence activity against STEME,STEME [11]; application rate 1280 g/ha,90%
same,post-emergence activity against VERPE,"VERPE [18]; application rate 320 g/ha, Table B11b",90%
same,post-emergence activity against VERPE,"VERPE [18]; application rate 1280 g/ha, Table B11a",90%
same,pre-emergence activity against ALOMY,"ALOMY; application rate 320 g/ha, Table A9b",90%
same,pre-emergence activity against ALOMY,ALOMY; [23],90%
same,pre-emergence activity against POAAN,POAAN [7]; [25],100%
same,pre-emergence activity against POAAN,POAAN [7]; [26],100%
same,pre-emergence activity against POAAN,POAAN [7]; [21],100%
same,pre-emergence activity against ECHCG,ECHCG [8]; application rate 80 g/ha,90%
same,pre-emergence activity against ECHCG,ECHCG [8]; application rate 320 g/ha,90%
same,pre-emergence activity against ECHCG,ECHCG [8]; application rate 1280 g/ha,90%
